PMC10630452, “The tumor-enriched small molecule gambogic amide suppresses glioma by targeting WDR1-dependent cytoskeleton remodeling” (Signal Transduction and Targeted Therapy, 2023)

Tested on: F-actin
Experiment: F-actin staining and G-actin/F-actin assay in T2-4 cells
Type: cell-based
Conditions: 0.3 μM, 4 h, 8 h and 12 h
Experimental: F-actin isolation was performed according to the instructions of the G-actin/F-actin assay (Cytoskeleton, Inc.). Briefly, cells were lysed in LAS2 buffer (Cytoskeleton, Inc.). The lysates were centrifuged (5 min at 1000 rpm) to pellet undisrupted cells, and then 100 µl of the supernatant was ultracentrifuged at 37 °C (100,000 × g) for 1 h to separate F-actin from soluble G-actin. The F-actin pellet was solubilized by incubation in 100 μL of F-actin depolymerization buffer for 1 h. The soluble F-actin and G-actin fractions were subsequently analyzed by immunoblotting with a mouse monoclonal anti-actin antibody (Cytoskeleton, Inc.).
Representative images of three wells are shown, and the scale bar represents 500 μm. h The apoptosis assay was conducted on T2-4 cells treated with DMSO, GA-amide (0.3 μM), jas (50 nM), and jas (50 nM jas was pretreated for 12 hours) in combination with GA-amide (0.3 μM) for 4 hours. The data were presented as the mean ± SEM (n = 3) and analyzed using one-way ANOVA analysis. Statistical significance is denoted as *P <0.05, **P <0.01, and ***P <0.001.

In the case of `CC(C)=CCC[C@]1(C)C=Cc2c(O)c3c(c(CC=C(C)C)c2O1)O[C@]12C(=C[C@@H]4CC1C(C)(C)O[C@@]2(C/C=C(/C)C(N)=O)C4=O)C3=O` [GA-amide, gambogic amide], the F-actin content is reported as “decreased content of F-actin at the cell edge”.
